{
  "source": "patent US11918618B2",
  "about": "“Composition for preventing or treating gastritis or peptic ulcer” (CHONG KUN DANG PHARMACEUTICAL CORP., priority 2017, dated 2024)",
  "key": {"[1]": {"conditions": "reported in the literature; cited from earlier work"}, "stomach mucus": {"tested_on": "stomach mucus", "test": "Effect of improving stomach mucosal amount (alcian blue binding) in Indomethacin-treated rats", "format": "in vivo", "conditions": "rat, oral dose 100.0 mg/kg, Indomethacin 80 mg/kg", "experimental": "In order to confirm the effect of improving the mucosal amount of the Example 1 and Comparative examples 1 to 6, the test was carried out according to the following method. Test animals were randomly assigned to 10 animals of specific pathogen free (SPF) 7-week-old rat males per group so that the average body weight was maximally uniformly distributed throughout the adaptation period (7 days). All animals were fasted 48 hours before administration and then test substances and control drug were orally administered, and 30 minutes after administration, Indomethacin 80 mg/kg was orally administered. […] After mixing the extract solution with diethyl ether in the same amount and shaking, it was centrifuged at 3,500 rpm for 10 minutes and for the supernatant, the absorbance was measured at 605 nm. 0.1% w/v alcian blue 8 GX solution was diluted with 0.25 M sucrose solution and standard solution was prepared and thereby a standard curve was fabricated and the measured absorbance value was converted into the amount of alcian blue combined with the stomach mucus, and the result was shown in Table 3."}, "PGE2": {"tested_on": "PGE2", "test": "Improvement of PGE2 in serum (PGE2 ELISA Kit) of Indomethacin-treated rats", "format": "in vivo", "conditions": "rat serum, oral dose 100.0 mg/kg", "source_text": "Since the recovery mechanism of stomach mucous membrane blood stream and epithelial cells is maintained and the action of preserving cells of the stomach mucous membrane was shown, when PGE2 in serum is increased, the enhanced improvement of PGE2 affects treatment of gastritis or stomach ulcer. In order to confirm the effect of the Example 1 and Comparative examples 2, 5 to 6 according to the present invention for this improvement of PGE2, for the blood collected in Test example 2, serum was separated according to the protocol provided by the manufacturer of PGE2 ELISA Kit and then sampling treatment was carried out, and then it was analyzed, and the result was shown in the following Table 4."}, "stomach ulcer": {"tested_on": "stomach ulcer", "test": "Inhibition of Indomethacin-induced stomach ulcer in rats (stomach ulcer index)", "format": "in vivo", "conditions": "rat, single oral dose 75.0 mg/kg, Indomethacin 80 mg/kg", "experimental": "In order to confirm the inhibition rate of stomach ulcer of the Example 1 and Comparative examples 1 to 6, the test was carried out according to the following method. Test animals were randomly assigned to 10 animals of specific pathogen free (SPF) 7-week-old rat males per group so that the average body weight was maximally uniformly distributed throughout the adaptation period (7 days). […] All animals were fasted 48 hours before administration of test substances and control drug, and then each of test substances and control drug was orally administered, and Indomethacin previously prepared 30 minutes after administration was orally administered at a dose of 80 mg/kg. After anesthetizing with diethyl ether 5 hours after administration of Indomethacin, stomach was removed and the gastric mucosa was photographed with a digital camera. The area of the damaged site was analyzed using ImageJ software (NIH, Bethesda, Md.). The stomach ulcer index was measured according to the following Equation 1. Stomach ulcer index (%)=(damage area/total area)×100 [Equation 1] The stomach ulcer test by volume for the Example 1 was tested by the method as Experimental example 1, and was shown in Table 5."}},
  "data": [
    {"smiles": "O=C/C=C/c1ccccc1", "note": "[cinnamic aldehyde]", "values": [
      {"measurement": "stability at the room temperature", "setting": "[1]", "result": "low"}
    ]},
    {"smiles": "O=C(NC(Cc1cc(=O)[nH]c2ccccc12)C(=O)O)c1ccc(Cl)cc1", "note": "(stereo not shown) [Comparative example 5, Rebamipide]", "values": [
      {"measurement": "Mucosal amount", "setting": "stomach mucus", "result": "10.6 ± 3.7", "unit": "µg/L"},
      {"measurement": "Mucosal amount, % compared to the normal group", "setting": "stomach mucus", "result": 94.6, "unit": "%"},
      {"measurement": "PGE2", "setting": "PGE2", "result": "1.82 ± 0.14", "unit": "ng/mL"},
      {"measurement": "PGE2, % compared to the normal group", "setting": "PGE2; normal group 100, induced group 0", "result": 77.7, "unit": "%"}
    ]},
    {"smiles": "CNC(=C[N+](=O)[O-])NCCSCc1ccc(CN(C)C)o1", "note": "[Comparative example 4, Ranitidine]", "values": [
      {"measurement": "Inhibition rate (%), compared to the induced group", "setting": "stomach ulcer", "result": 97.0, "unit": "%"},
      {"measurement": "Stomach ulcer index (%)", "setting": "stomach ulcer", "result": "0.20 ± 0.29", "unit": "%"}
    ]}
  ]
}
